In US20080312301A1, “Substituted N-Benzo[D]Isoxazol-3-Yl-Amine Compounds as Inhibitors of Mglur5, Serotonin (5-Ht) and Noradrenaline Receptors, and Uses Thereof” (Gruenenthal GmbH, priority 2005, published 2008):

Key:
[1] = molecular target: T1, 5-HT uptake (serotonin reuptake) (Rattus norvegicus, UniProt P31652); assay: 5HT uptake inhibition in rat brain synaptosomes (medulla and pons), [3H]-5-HT; assay type: biochemical; conditions: for inhibition at 10 µM: conc. 10 μM
T1 construct: from tissue; host or cells: rat medulla and pons synaptosomes (P2 fraction)
T1 sequence (P31652 whole entry): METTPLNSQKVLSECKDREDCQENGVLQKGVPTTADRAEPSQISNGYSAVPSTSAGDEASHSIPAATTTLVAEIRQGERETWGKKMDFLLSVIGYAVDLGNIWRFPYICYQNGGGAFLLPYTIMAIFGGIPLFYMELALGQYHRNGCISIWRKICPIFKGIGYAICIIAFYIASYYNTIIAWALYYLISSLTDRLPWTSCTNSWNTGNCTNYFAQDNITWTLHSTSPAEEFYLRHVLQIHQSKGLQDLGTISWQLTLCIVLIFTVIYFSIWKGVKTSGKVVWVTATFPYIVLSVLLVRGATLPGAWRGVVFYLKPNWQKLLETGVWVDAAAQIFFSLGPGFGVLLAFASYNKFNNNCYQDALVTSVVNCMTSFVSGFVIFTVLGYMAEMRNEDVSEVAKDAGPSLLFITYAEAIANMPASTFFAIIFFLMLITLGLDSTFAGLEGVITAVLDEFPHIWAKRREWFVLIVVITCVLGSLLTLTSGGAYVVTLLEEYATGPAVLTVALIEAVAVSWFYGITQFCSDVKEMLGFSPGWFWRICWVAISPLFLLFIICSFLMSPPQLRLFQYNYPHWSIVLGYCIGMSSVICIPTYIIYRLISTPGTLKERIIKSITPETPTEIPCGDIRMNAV
Text: (§1) I. Method for Determining the Noradrenaline and 5HT Uptake Inhibition:
(§2) For in vitro studies, synaptosomes were freshly isolated from rat brain areas as described in the publication “The isolation of nerve endings from brain” by E. G. Gray and V. P. Whittaker, J. Anatomy 96, pages 79-88, 1962. The corresponding literature description is introduced hereby as reference and forms part of the disclosure.
(§3) The tissue (hypothalamus for determining the noradrenaline uptake inhibition and medulla and pons for determining the 5HT uptake inhibition) was homogenized in ice-cold 0.32 M sucrose (100 mg of tissue/1 ml) in a glass homogenizer with Teflon pestle using five full up and down strokes at 840 revolutions/minute. The homogenate was centrifuged at 1000 g and at 4° C. for 10 minutes. After subsequent centrifugation at 17 000 g for 55 minutes, the synaptosomes (P2 fraction) are obtained and were resuspended in 0.32 M […] (0.5 ml/100 mg of the original weight).
(§4) The respective uptake was measured in a 96-well microtiter plate. The volume was 250 μl and incubation took place at room temperature (approx. 20-25° C.) under an O2 atmosphere.
(§5) The incubation time was 7.5 minutes for [^3H]-NA and 5 minutes for [^3H]-5-HT. The 96 samples were then filtered through a Unifilter GF/B® microtiter plate (Packard) and washed with […] of incubated buffer using a “Brabdel MPXRI-96T Cell Harvester”. The Unifilter GF/B plate was dried at 55° C. for 1 h. The plate was then sealed with a Back Seal® (Packard) and 35 μl of scintillation fluid were added per well (Ultima Gold®, Packard). After sealing with a top Seal® (Packard), the radioactivity was determined, after equilibrium had been reached (about 5 h), in a “Trilux 1450 Microbeta” (Wallac).
(§6) The amount of protein employed in the above determination corresponded to the value disclosed in the literature, as described for example in “Protein measurement with the folin phenol reagent”, Lowry et al., J. Biol. Chem., 193, 265-275, 1951. A detailed description of the method can also be found in the literature, for example from M. Ch. Frink, H.-H. Hennies, W. Engelberger, M. Haurand and B. Wilffert (1996) Arzneim.-Forsch./Drug Res. 46 (III), 11, 1029-1036. The corresponding literature descriptions are hereby introduced as reference and form part of the disclosure.

[2] = molecular target: T2, NA transporter (Rattus norvegicus, UniProt Q63380); assay: Noradrenaline (NA) uptake inhibition in rat brain synaptosomes (hypothalamus), [3H]-NA; assay type: biochemical; conditions: for inhibition at 10 µM: conc. 10 μM
T2 construct: from tissue; host or cells: rat hypothalamus synaptosomes (P2 fraction)
T2 sequence (Q63380 1-617): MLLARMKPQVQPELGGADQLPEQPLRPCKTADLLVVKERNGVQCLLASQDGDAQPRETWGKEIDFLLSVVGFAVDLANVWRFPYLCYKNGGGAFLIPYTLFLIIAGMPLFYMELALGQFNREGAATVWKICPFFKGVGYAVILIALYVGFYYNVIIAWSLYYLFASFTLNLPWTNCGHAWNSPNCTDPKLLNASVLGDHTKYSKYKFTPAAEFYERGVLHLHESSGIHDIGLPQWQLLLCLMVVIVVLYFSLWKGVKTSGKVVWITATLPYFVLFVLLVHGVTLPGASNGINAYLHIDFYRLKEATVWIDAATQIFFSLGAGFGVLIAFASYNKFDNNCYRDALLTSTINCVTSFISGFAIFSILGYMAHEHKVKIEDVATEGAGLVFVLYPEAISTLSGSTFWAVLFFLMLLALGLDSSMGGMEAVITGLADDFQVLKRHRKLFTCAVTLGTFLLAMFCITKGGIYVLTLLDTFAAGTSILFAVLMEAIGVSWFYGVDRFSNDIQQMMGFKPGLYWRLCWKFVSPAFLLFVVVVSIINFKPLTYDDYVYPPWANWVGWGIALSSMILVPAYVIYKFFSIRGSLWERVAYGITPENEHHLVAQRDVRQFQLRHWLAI
Text: as §1, §2, §3, §4, §5
The following characteristic data were found for the NA transporter:
as §6

[3] = molecular target: T3, mGluR5 receptor (Sus scrofa, UniProt I3LUI7); assay: Affinity for the mGluR5 receptor: displacement of 3[H]-MPEP binding in pig brain homogenate; conditions: 10 μM compound, 5 nM 3[H]-MPEP
T3 construct: 450 μg of protein from brain homogenate are incubated with 5 nM^3[H]-MPEP; from tissue; host or cells: pig brain hemispheres without medulla, cerebellum and pons
T3 sequence (I3LUI7 19-1212): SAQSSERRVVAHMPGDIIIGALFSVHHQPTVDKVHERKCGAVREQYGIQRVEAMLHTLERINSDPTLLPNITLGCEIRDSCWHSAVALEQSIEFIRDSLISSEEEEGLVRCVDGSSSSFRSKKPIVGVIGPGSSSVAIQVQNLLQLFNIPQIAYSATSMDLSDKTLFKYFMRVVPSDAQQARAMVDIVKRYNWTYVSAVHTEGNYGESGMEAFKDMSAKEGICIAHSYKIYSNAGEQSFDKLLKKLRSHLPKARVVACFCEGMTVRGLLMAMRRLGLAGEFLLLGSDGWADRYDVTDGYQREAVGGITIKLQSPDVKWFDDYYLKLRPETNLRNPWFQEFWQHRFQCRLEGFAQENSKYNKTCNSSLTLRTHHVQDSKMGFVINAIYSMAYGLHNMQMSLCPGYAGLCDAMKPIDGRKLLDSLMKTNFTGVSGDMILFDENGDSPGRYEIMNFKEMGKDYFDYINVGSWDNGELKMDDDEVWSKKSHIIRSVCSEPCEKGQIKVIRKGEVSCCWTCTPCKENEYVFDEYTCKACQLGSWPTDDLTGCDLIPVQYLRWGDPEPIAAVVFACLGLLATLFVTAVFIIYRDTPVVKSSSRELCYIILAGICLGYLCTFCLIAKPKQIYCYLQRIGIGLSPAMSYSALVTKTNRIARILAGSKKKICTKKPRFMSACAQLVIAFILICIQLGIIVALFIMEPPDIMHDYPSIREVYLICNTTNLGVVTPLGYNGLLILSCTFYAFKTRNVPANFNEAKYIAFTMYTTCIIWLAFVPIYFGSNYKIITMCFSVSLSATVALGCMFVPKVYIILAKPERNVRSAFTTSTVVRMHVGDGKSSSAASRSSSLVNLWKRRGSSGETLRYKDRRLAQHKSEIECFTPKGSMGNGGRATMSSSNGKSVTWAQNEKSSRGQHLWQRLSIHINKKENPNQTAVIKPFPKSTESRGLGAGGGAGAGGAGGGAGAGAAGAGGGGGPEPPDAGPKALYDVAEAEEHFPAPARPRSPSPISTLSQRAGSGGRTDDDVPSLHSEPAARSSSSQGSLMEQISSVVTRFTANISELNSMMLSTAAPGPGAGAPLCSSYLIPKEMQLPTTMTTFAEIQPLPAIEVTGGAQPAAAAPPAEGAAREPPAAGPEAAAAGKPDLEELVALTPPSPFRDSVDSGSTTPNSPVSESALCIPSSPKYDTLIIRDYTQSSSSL
Description: II. Method for Determining the Affinity for the mGluR5 Receptor
In each case 450 μg of protein from brain homogenate are incubated with 5 nM^3[H]-MPEP (Tocris, order No. R1212) (MPEP=2-methyl-6-[…]) and the compounds to be investigated (10 μM in the assay) in buffer (as above) in 250 μl incubation mixtures in 96-well microtiter plates at room temperature for 60 min.
The filter plates were then dried at 55° C. for 60 min.

Row | Compound | inhibition at 10 µM [1] | also measured
1 | O=C(Nc1noc2ccccc12)c1ccccc1C(F)(F)F [Example 13, N-benzo[d]isoxazol-3-yl-2-trifluoromethylbenzamide] | 84% | –
2 | O=C(Nc1noc2ccccc12)c1ccc(Cl)c(Cl)c1 [Example 14, N-benzo[d]isoxazol-3-yl-3,4-dichlorobenzamide] | 69% | –
3 | O=C(Nc1noc2ccccc12)c1cccc(F)c1F [Example 15, N-benzo[d]isoxazol-3-yl-2,3-difluorobenzamide] | 86% | –
4 | CN(C)c1cccc2onc(NC(=O)c3cccc(F)c3)c12 [Example 16, N-(4-dimethylaminobenzo[d]isoxazol-3-yl)-3-fluorobenzamide] | 72% | –
5 | O=C(Nc1noc2cc(F)ccc12)c1cccs1 [Example 17, thiophene-2-(6-fluorobenzo[d]isoxazol-3-yl)carboxamide] | – | 5 HT uptake inhibition [%] conc. 10 μM [1]: 77%
6 | CCC(C)C(=O)Nc1noc2cc(F)ccc12 (stereo not drawn) [Example 18, N-(6-fluorobenzo[d]isoxazol-3-yl)-2-methylbutyramide] | 70% | –
7 | O=C(Nc1noc2cc(Cl)ccc12)c1cccc(C(F)(F)F)c1F [Example 19, N-(6-chlorobenzo[d]isoxazol-3-yl)-2-fluoro-3-trifluoromethylbenzamide] | 77% | inhibition at 10 µM [2]: 63%
8 | COc1cccc(C(=O)Nc2noc3cc(Cl)ccc23)c1 [Example 20, N-(6-chlorobenzo[d]isoxazol-3-yl)-3-methoxybenzamide] | 77% | –
9 | CC(C)(C)c1ccc(C(=O)Nc2noc3cc(Br)ccc23)cc1 [Example 21, N-(6-bromobenzo[d]isoxazol-3-yl)-4-tert-butylbenzamide] | 81% | –
10 | COc1ccccc1C(=O)Nc1noc2cc(Br)ccc12 [Example 22, N-(6-bromobenzo[d]isoxazol-3-yl)-2-methoxybenzamide] | 79% | –
11 | O=C(Nc1noc2cc(Br)ccc12)c1ccccc1C(F)(F)F [Example 23, N-(6-bromobenzo[d]isoxazol-3-yl)-2-trifluoromethyl benzamide] | – | 5 HT uptake inhibition [%] conc. 10 μM [1]: 86%
12 | O=C(Nc1noc2cc(Br)ccc12)C1C2CC3CC(C2)CC1C3 (stereo not drawn) [Example 24, adamantane-2-(6-bromobenzo[d]isoxazol-3-yl)carboxamide] | – | 5 HT uptake inhibition [%] conc. 10 μM [1]: 79%
13 | CCC(C)C(=O)Nc1noc2cc(Br)ccc12 (stereo not drawn) [Example 25, N-(6-bromobenzo[d]isoxazol-3-yl)-2-methylbutyramide] | 86% | –
14 | O=C(Nc1noc2ccc(F)cc12)c1ccccc1C(F)(F)F [Example 26, N-(5-fluorobenzo[d]isoxazol-3-yl)-2-trifluoromethylbenzamide] | 82% | –
15 | O=C(Nc1noc2ccc(F)cc12)c1ccc(Cl)c(Cl)c1 [Example 27, 3,4-dichloro-N-(5-fluorobenzo[d]isoxazol-3-yl)benzamide] | 89% | –
16 | Cc1ccccc1C(=O)Nc1noc2ccc(F)cc12 [Example 28, N-(5-fluorobenzo[d]isoxazol-3-yl)-2-methylbenzamide] | 91% | inhibition at 10 µM [3]: 35%
17 | O=C(Nc1noc2ccc(Br)cc12)c1cc(C(F)(F)F)ccc1F [Example 29, N-(5-bromobenzo[d]isoxazol-3-yl)-2-fluoro-5-trifluoromethylbenzamide] | 83% | –
18 | O=C(Nc1noc2ccc(Br)cc12)c1ccc(F)cc1F [Example 30, N-(5-bromobenzo[d]isoxazol-3-yl)-2,4-difluorobenzamide] | 79% | inhibition at 10 µM [3]: 45.2%
19 | Cc1ccc2onc(NC(=O)c3ccccc3C(F)(F)F)c2c1 [Example 31, N-(5-methylbenzo[d]isoxazol-3-yl)-2-trifluoromethylbenzamide] | 69% | –
20 | COc1cccc2onc(NC(=O)c3cc(C(F)(F)F)cc(C(F)(F)F)c3)c12 [Example 33, N-(4-methoxybenzo[d]isoxazol-3-yl)-3,5-bistrifluoromethyl benzamide] | – | 5 HT uptake inhibition [%] conc. 10 μM [1]: 85%
21 | O=C(Nc1noc2cc(Br)ccc12)c1ccc(F)c(F)c1 [Example 49, N-(6-bromobenzo[d]isoxazol-3-yl)-3,4-difluorobenzamide] | – | inhibition at 10 µM [2]: 65%; inhibition at 10 µM [3]: 36.9%
22 | CN(C)c1cccc2onc(NC(=O)C3CCCCC3)c12 [Example 73, cyclohexane-(4-dimethylaminobenzo[d]isoxazol-3-yl)carboxamide] | – | NA uptake inhibition [%] conc. 10 μM [2]: 70%; mGluR5 receptor inhibition of the 3[H]-MPEP binding in % (10 μM) [3]: 30.05%
23 | O=C(Nc1noc2cccc(OCC(F)(F)F)c12)c1ccc(F)cc1C(F)(F)F [Example 77, 4-fluoro-N-[4-(2,2,2-trifluoroethoxy)benzo[d]isoxazol-3-yl]-2-trifluoromethyl-benzamide] | – | inhibition at 10 µM [2]: 70%; inhibition at 10 µM [3]: 38%
24 | O=C(Nc1noc2cccc(OCC(F)(F)F)c12)c1ccc(F)c(F)c1F [Example 80, 2,3,4-trifluoro-N-[4-(2,2,2-trifluoroethoxy)benzo[d]isoxazol-3-yl]benzamide] | – | inhibition at 10 µM [2]: 66%
25 | O=C(Nc1noc2cccc(OCC(F)(F)F)c12)c1ccc2ccccc2c1 [Example 81, naphthalene-2-[4-(2,2,2-trifluoroethoxy)benzo[d]isoxazol-3-yl]carboxamide] | – | NA uptake inhibition [%] conc. 10 μM [2]: 65%
26 | O=C(Nc1noc2cccc(OCC(F)(F)F)c12)c1ccc(F)c(F)c1 [Example 82, 3,4-difluoro-N-[4-(2,2,2-trifluoroethoxy)benzo[d]isoxazol-3-yl]benzamide] | – | inhibition at 10 µM [2]: 68%; inhibition at 10 µM [3]: 42%
27 | O=C(Nc1noc2cccc(OCC(F)(F)F)c12)c1cccc(C(F)(F)F)c1F [Example 83, 2-fluoro-N-[4-(2,2,2-trifluoroethoxy)benzo[d]isoxazol-3-yl]-3-trifluoromethyl-benzamide] | – | inhibition at 10 µM [2]: 65%
28 | furan-2-(4-dimethylaminobenzo[d]isoxazol-3-yl)carboxamide [Example 75] | – | NA uptake inhibition [%] conc. 10 μM [2]: 64%

Further lines, with some results ahead:

Row | inhibition at 10 µM [1] | Compound | also measured
29 | 89% | Cc1ccc2onc(NC(=O)c3cccc(F)c3)c2c1 [Example 32, 3-fluoro-N-(5-methylbenzo[d]isoxazol-3-yl)benzamide] | inhibition at 10 µM [3]: 40.1%
30 | 78% | COc1cccc2onc(NC(=O)c3cc(F)cc(F)c3)c12 [Example 34, 3,5-difluoro-N-(4-methoxybenzo[d]isoxazol-3-yl)benzamide] | –
31 | 86% | CN(C)c1cccc2onc(NC(=O)c3cc(C(F)(F)F)cc(C(F)(F)F)c3)c12 [Example 35, N-(4-dimethylaminobenzo[d]isoxazol-3-yl)-3,5-bistrifluoromethylbenzamide] | –
32 | 84% | O=C(Nc1noc2cccc(OCC(F)(F)F)c12)c1ccccc1Br [Example 36, 2-bromo-N-[4-(2,2,2-trifluoroethoxy)benzo[d]isoxazol-3-yl]benzamide] | inhibition at 10 µM [3]: 30.3%
33 | 90% | O=C(Nc1noc2cccc(OCC(F)(F)F)c12)c1cccc(Cl)c1 [Example 37, 3-chloro-N-[4-(2,2,2-trifluoroethoxy)benzo[d]isoxazol-3-yl]benzamide] | –
34 | 77% | CC(C)(C)c1ccc(C(=O)Nc2noc3cccc(OCC(F)(F)F)c23)cc1 [Example 38, 4-tert-butyl-N-[4-(2,2,2-trifluoroethoxy)benzo[d]isoxazol-3-yl]benzamide] | –
35 | 82% | COc1ccccc1C(=O)Nc1noc2cccc(OCC(F)(F)F)c12 [Example 39, 2-methoxy-N-[4-(2,2,2-trifluoroethoxy)benzo[d]isoxazol-3-yl]benzamide] | inhibition at 10 µM [3]: 30.5%
